According to patent US6458835B2, “Method of inhibiting or treating chemotherapy-induced hair loss” (Bristol-Myers Squibb Company, priority 1997, dated 2002):

Key:
C3H mice = assay: Hair growth (hair follicle stimulation) in C3H mouse model, topical application; format: in vivo; settings: for percent of animals showing hair follicle stimulation / time of onset of follicle stimulation: 2% solution topical 1x daily; for time of onset of follicle stimulation: male C3H mice, 5 days per week
Description: The two enantiomers were compared topically for hair growth in C3H mice.
The C3H mouse is a useful model for studying hair growth. Its usefulness rests with the fact that skin pigmentation of this animal is provided by the melanocytes of the hair follicle and not the epidermis. In the telogen or the resting phase of the hair follicle, the skin is pink. In the earliest phase of anagen or the growth phase, there is sudden graying of the skin and as the anagen phase progresses the skin becomes darker in color. In this study, visual observation was used as an in vivo assay of anagen induction. Furthermore as anagen develops, the skin thickness increases from a thin telogen skin to a measurably thickened anagen skin. Thus, recording the skin color and microscopic thickness of skin from these mice offers a sensitive, quantifiable and convenient method of assessing the phases of hair growth.
Groups of 20, six to seven week old male C3H mice with hair follicles in the resting phase of hair growth were used. At this stage in their life, the hair follicles remain in the telogen phase for up to 30 days or longer. This provides an adequate window of time to screen drugs. […] This stimulation is manifested by the shortening of the telogen phase of the hair follicle cycle.
Animals were anesthetized with ketamine/rompun (100 mg/Kg and 12 mg/Kg) IP and the hair over a defined dorsal area were closely clipped.
The vehicle employed was ethanol/propylene glycol/water, 60/30/10. Treatment was continued for at least 4-5 weeks.
Animals were observed daily for side effects and changes to the test sites. All observations were documented. Test sites were graded weekly for changes in skin color and hair growth. In this study drug effects were evaluated using the visual observation of skin changing from pink to gray and resulting in hair growth.

| melting point [°C] | IC50 (Vasorelaxant potency) [nM] | Compound | onset of action compared to the corresponding enantiomer (C3H mice; C3H mice, versus (S)-enantiomer) | percent of animals showing hair follicle stimulation (C3H mice; by day 11 of treatment) [%] | percent of animals showing hair follicle stimulation (C3H mice; by day 14) [%] | percent of animals showing hair follicle stimulation (C3H mice; by day 28) [%] | time of onset of follicle stimulation (C3H mice) [days] | hair growth promoting ability relative to the (S)-enantiomer (C3H mice; producing hair growth within 11 days of treatment) [times] | incidence of hair follicle stimulation compared to the other enantiomer (C3H mice; throughout the treatment period, versus Example 2-(S)-enantiomer) |
| --- | --- | --- | --- | --- | --- | --- | --- | --- | --- |
| 159 to 160 | 47 ± 17 | C[C@@H](NC(=NC#N)Nc1ccc(C#N)cc1)C(C)(C)C [Example 1, (R)-4-[[(Cyanoimino)[(1,2,2-trimethylpropyl)amino]-methyl]amino]benzonitrile] | faster onset of action | 40 | 50 | 85 | 7 | 8 | higher incidence of hair follicle stimulation |
| 158 to 159 | 157 ± 35 | C[C@H](NC(=NC#N)Nc1ccc(C#N)cc1)C(C)(C)C [Example 2, (S)-4-[[(Cyanoimino)[(1,2,2-trimethylpropyl)amino]-methyl]amino]benzonitrile] | – | 5 | 25 | 65 | 11 | – | – |
